From patent US20150105252A1, “SUBSTITUTED PYRAZOLES AS HERBICIDES” (E I DU PONT DE NEMOURS AND COMPANY, priority 2013, published 2015)

What was measured:
velvetleaf = assay: Test A postemergence; assay type: in vivo, Abutilon theophrasti; settings: Postemergence
How it was run: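 Scoring was visual, on a scale where 100 means complete control and 0 means no effect, comparing treated with untreated plants around 10 days post-application. Compounds in surfactant-containing non-phytotoxic solvent were sprayed onto soil preemergence or onto one- to two-leaf seedlings (2–10 cm) postemergence.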

blackgrass = assay: Test C preemergence; assay type: in vivo, Alopecurus myosuroides; settings: preemergence; for Plant response rating, Blackgrass: 125 g ai/ha, scale 0 to 100, 0 = no effect, 100 = complete control
How it was run: (§1)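 Seeds sown in loam–sand blend and treated preemergence with test chemicals in non-phytotoxic solvent with surfactant; postemergence plants in peat-based medium, treated at 2–18 cm (1- to 4-leaf stage). Greenhouse 13 to 15 days, then visual rating versus controls, 0 (no effect) to 100 (complete control).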

wheat [1] = assay: Test C preemergence; assay type: in vivo, Triticum aestivum
How it was run: as §1

galium = assay: Test C preemergence; assay type: in vivo, Galium aparine
How it was run: as §1

corn = assay: Test C preemergence; assay type: in vivo, Zea mays
How it was run: as §1

pigweed = assay: Test C preemergence; assay type: in vivo, Amaranthus retroflexus
How it was run: as §1

ragweed = assay: Test C preemergence; assay type: in vivo, Ambrosia elation
How it was run: as §1

soybean = assay: Test C preemergence; assay type: in vivo, Glycine max
How it was run: as §1

oilseed rape = assay: Test C preemergence; assay type: in vivo, Brassica napus
How it was run: as §1

waterhemp = assay: Test C preemergence; assay type: in vivo, Amaranthus rudis
How it was run: as §1

wheat [2] = assay: Test C postemergence; assay type: in vivo, Triticum aestivum; settings: postemergence; for Plant response rating, Wheat: 250 g ai/ha, scale 0 to 100 (0 no effect, 100 complete control); for Wheat plant response rating: scale 0 to 100
How it was run: as §1

foxtail, giant = assay: Test C postemergence; assay type: in vivo, Setaria faberii; settings: for Plant response rating (scale of 0 to 100 where 0 is no effect and 100 is complete control), Foxtail, Giant: Postemergence, 31 g ai/ha, visually evaluated after 13 to 15 days; for Foxtail, Giant plant response rating / Plant response rating, Foxtail, Giant: postemergence; for Foxtail, Giant plant response rating: 62 g ai/ha, scale 0 to 100
How it was run: as §1

johnsongrass = assay: Test C postemergence; assay type: in vivo, Sorghum halepense; settings: for Plant response rating (scale of 0 to 100 where 0 is no effect and 100 is complete control), Johnsongrass: Postemergence, 31 g ai/ha, visually evaluated after 13 to 15 days; for Johnsongrass plant response rating / Plant response rating, Johnsongrass: postemergence; for Johnsongrass plant response rating: 62 g ai/ha, scale 0 to 100
How it was run: as §1

lambsquarters = assay: Test C postemergence; assay type: in vivo, Chenopodium album; settings: for Plant response rating (scale of 0 to 100 where 0 is no effect and 100 is complete control), Lambsquarters: Postemergence, 31 g ai/ha, visually evaluated after 13 to 15 days; for Lambsquarters plant response rating / Plant response rating, Lambsquarters: postemergence; for Lambsquarters plant response rating: 62 g ai/ha, scale 0 to 100
How it was run: as §1

chickweed = assay: Test C postemergence; assay type: in vivo, Stellaria media; settings: for Plant response rating (scale of 0 to 100 where 0 is no effect and 100 is complete control), Chickweed: Postemergence, 31 g ai/ha, visually evaluated after 13 to 15 days; for Chickweed plant response rating / Plant response rating, Chickweed: postemergence; for Chickweed plant response rating: 62 g ai/ha, scale 0 to 100
How it was run: as §1

[3] = 125 g ai/ha, 0 to 100 scale, 0 no effect, 100 complete control
[4] = 500 g ai/ha, 0 to 100 scale (0 no effect, 100 complete control)
[5] = 31 g ai/ha, visual rating, scale 0 to 100 (0 no effect, 100 complete control), 13 to 15 days
[6] = 62 g ai/ha, scale 0 to 100 (0 no effect, 100 complete control), 13 to 15 days
[7] = 250 g ai/ha, scale 0 to 100, 0 is no effect, 100 is complete control
[8] = Preemergence, rate head not shown (block before 16 g ai/ha), scale 0 to 100
[9] = preemergence, 62 g ai/ha, scale 0 to 100 (0 no effect, 100 complete control), 13 to 15 days
[10] = preemergence, 125 g ai/ha, 13 to 15 days, scale 0 to 100, 0 = no effect, 100 = complete control
[11] = preemergence, 250 g ai/ha, scale 0 to 100, 0 is no effect, 100 is complete control
[12] = Preemergence, rate head not shown (block before 16 g ai/ha), scale 0 to 100, 100 is complete control
[13] = 250 g ai/ha, scale 0 to 100 (0 no effect, 100 complete control)
[14] = 125 g ai/ha, scale 0 to 100, 0 no effect, 100 complete control

Structure (SMILES): CCc1cc(C(=O)NC2CC2)nn1Cc1ccnc(Br)c1 [Compound 220]
- Velvetleaf plant response rating (velvetleaf; [3]): 70
- Velvetleaf plant response rating (velvetleaf; [4]): 80
- Blackgrass plant response rating (blackgrass; [5]): 0
- Blackgrass plant response rating (blackgrass; [6]): 0
- Plant response rating, Blackgrass (blackgrass; 13 to 15 days): 40
- Blackgrass plant response rating (blackgrass; [7]): 70
- Plant response rating, Wheat (wheat [1]; [8]): 10
- Wheat plant response rating (wheat [1]; [9]): 0
- Plant response rating, Wheat (wheat [1]; [10]): 15
- Wheat plant response rating (wheat [1]; [11]): 0
- Plant response rating, Galium (galium; [8]): 5
- Galium plant response rating (galium; [9]): 80
- Plant response rating, Galium (galium; [10]): 80
- Galium plant response rating (galium; [11]): 98
- Plant response rating, Corn (corn; [12]): 0
- Corn plant response rating (corn; [9]): 0
- Plant response rating, Corn (corn; [10]): 5
- Corn plant response rating (corn; [11]): 40
- Plant response rating, Pigweed (pigweed; [8]): 65
- Pigweed plant response rating (pigweed; [9]): 100
- Plant response rating, Pigweed (pigweed; [10]): 100
- Pigweed plant response rating (pigweed; [11]): 100
- Plant response rating, Ragweed (ragweed; [8]): 80
- Ragweed plant response rating (ragweed; [9]): 65
- Plant response rating, Ragweed (ragweed; [10]): 75
- Ragweed plant response rating (ragweed; [11]): 95
- Plant response rating, Soybean (soybean; [8]): 10
- Soybean plant response rating (soybean; [9]): 10
- Plant response rating, Soybean (soybean; [10]): 35
- Soybean plant response rating (soybean; [11]): 60
- Plant response rating, Oilseed Rape (oilseed rape; [8]): 80
- Oilseed Rape plant response rating (oilseed rape; [9]): 30
- Plant response rating, Oilseed Rape (oilseed rape; [10]): 85
- Oilseed Rape plant response rating (oilseed rape; [11]): 95
- Plant response rating, Waterhemp (waterhemp; [8]): 75
- Waterhemp plant response rating (waterhemp; [9]): 95
- Plant response rating, Waterhemp (waterhemp; [10]): 100
- Waterhemp plant response rating (waterhemp; [11]): 100
- Plant response rating, Wheat (wheat [2]): 5
- Wheat plant response rating (wheat [2]): 0
- Plant response rating (scale of 0 to 100 where 0 is no effect and 100 is complete control), Foxtail, Giant (foxtail, giant): 0
- Foxtail, Giant plant response rating (foxtail, giant): 5
- Plant response rating, Foxtail, Giant (foxtail, giant; [13]): 5
- Plant response rating, Foxtail, Giant (foxtail, giant; [14]): 5
- Plant response rating (scale of 0 to 100 where 0 is no effect and 100 is complete control), Johnsongrass (johnsongrass): 0
- Johnsongrass plant response rating (johnsongrass): 0
- Plant response rating, Johnsongrass (johnsongrass; [13]): 25
- Plant response rating, Johnsongrass (johnsongrass; [14]): 20
- Plant response rating (scale of 0 to 100 where 0 is no effect and 100 is complete control), Lambsquarters (lambsquarters): 30
- Lambsquarters plant response rating (lambsquarters): 10
- Plant response rating, Lambsquarters (lambsquarters; [13]): 25
- Plant response rating, Lambsquarters (lambsquarters; [14]): 20
- Plant response rating (scale of 0 to 100 where 0 is no effect and 100 is complete control), Chickweed (chickweed): 50
- Chickweed plant response rating (chickweed): 55
- Plant response rating, Chickweed (chickweed; [13]): 80
- Plant response rating, Chickweed (chickweed; [14]): 60

Structure (SMILES): CCc1cc(C(=O)NCC(F)(F)F)nn1Cc1ccnc(Br)c1 [Compound 224]
- Velvetleaf plant response rating (velvetleaf; [3]): 60
- Velvetleaf plant response rating (velvetleaf; [4]): 100
- Blackgrass plant response rating (blackgrass; [5]): 80
- Blackgrass plant response rating (blackgrass; [6]): 100
- Plant response rating, Blackgrass (blackgrass; 13 to 15 days): 80
- Blackgrass plant response rating (blackgrass; [7]): 90
- Plant response rating, Wheat (wheat [1]; [8]): 0
- Wheat plant response rating (wheat [1]; [9]): 0
- Plant response rating, Wheat (wheat [1]; [10]): 10
- Wheat plant response rating (wheat [1]; [11]): 60
- Plant response rating, Galium (galium; [8]): 80
- Galium plant response rating (galium; [9]): 80
- Plant response rating, Galium (galium; [10]): 100
- Galium plant response rating (galium; [11]): 90
- Plant response rating, Corn (corn; [12]): 0
- Corn plant response rating (corn; [9]): 5
- Plant response rating, Corn (corn; [10]): 15
- Corn plant response rating (corn; [11]): 60
- Plant response rating, Pigweed (pigweed; [8]): 100
- Pigweed plant response rating (pigweed; [9]): 100
- Plant response rating, Pigweed (pigweed; [10]): 100
- Pigweed plant response rating (pigweed; [11]): 100
- Plant response rating, Ragweed (ragweed; [8]): 85
- Ragweed plant response rating (ragweed; [9]): 85
- Plant response rating, Ragweed (ragweed; [10]): 95
- Ragweed plant response rating (ragweed; [11]): 100
- Plant response rating, Soybean (soybean; [8]): 10
- Soybean plant response rating (soybean; [9]): 40
- Plant response rating, Soybean (soybean; [10]): 65
- Soybean plant response rating (soybean; [11]): 90
- Plant response rating, Oilseed Rape (oilseed rape; [8]): 80
- Oilseed Rape plant response rating (oilseed rape; [9]): 90
- Plant response rating, Oilseed Rape (oilseed rape; [10]): 95
- Oilseed Rape plant response rating (oilseed rape; [11]): 95
- Plant response rating, Waterhemp (waterhemp; [8]): 100
- Waterhemp plant response rating (waterhemp; [9]): 100
- Plant response rating, Waterhemp (waterhemp; [10]): 100
- Waterhemp plant response rating (waterhemp; [11]): 100
- Plant response rating, Wheat (wheat [2]): 5
- Wheat plant response rating (wheat [2]): 0
- Plant response rating (scale of 0 to 100 where 0 is no effect and 100 is complete control), Foxtail, Giant (foxtail, giant): 5
- Foxtail, Giant plant response rating (foxtail, giant): 5
- Plant response rating, Foxtail, Giant (foxtail, giant; [13]): 5
- Plant response rating, Foxtail, Giant (foxtail, giant; [14]): 5
- Plant response rating (scale of 0 to 100 where 0 is no effect and 100 is complete control), Johnsongrass (johnsongrass): 20
- Johnsongrass plant response rating (johnsongrass): 5
- Plant response rating, Johnsongrass (johnsongrass; [13]): 5
- Plant response rating, Johnsongrass (johnsongrass; [14]): 5
- Plant response rating (scale of 0 to 100 where 0 is no effect and 100 is complete control), Lambsquarters (lambsquarters): 35
- Lambsquarters plant response rating (lambsquarters): 40
- Plant response rating, Lambsquarters (lambsquarters; [13]): 60
- Plant response rating, Lambsquarters (lambsquarters; [14]): 45
- Plant response rating (scale of 0 to 100 where 0 is no effect and 100 is complete control), Chickweed (chickweed): 50
- Chickweed plant response rating (chickweed): 55
- Plant response rating, Chickweed (chickweed; [13]): 90
- Plant response rating, Chickweed (chickweed; [14]): 55
